Measured values reported in patent US20110105623A1 (Biogenic Innovations, LLC, priority 2009, published 2011).
“And” between values parts separate entries of the source, which are not always exact repeats. Equal values may be shown once.

Legend:
[1] = system: Streptococcus Pneumonia (#10341); assay: Bacterial viability by bioluminescent ATP assay
[2] = system: Lactobacillus acidophilus; assay: Recovery from Acidophilus milk fortified with MSM into broth without MSM; type: cell-based; conditions: for Recovery of Lactobacillus acidophilus in Milk fortified with MSM Day 14, initial start data: Day 14-0; for Lag Recovery of Lactobacillus acidophilus in Milk fortified with MSM Day 14 / Lag Recovery of Lactobacillus acidophilus in Milk fortified with MSM Day 21 / Lag Recovery of Lactobacillus acidophilus in Milk fortified with MSM Day 28 / Lag Recovery of Lactobacillus acidophilus in Milk fortified with MSM Day 7: duplicates; for Lag Recovery of Lactobacillus acidophilus in Milk fortified with MSM Day 21 / Lag Recovery of Lactobacillus acidophilus in Milk fortified with MSM Day 28: 0.50% MSM; for Lag Recovery of Lactobacillus acidophilus in Milk fortified with MSM Day 7: 5% MSM
Description: The Acidophilus milk was low fat (Darigold). […] All preparations and plating was conducted at room temperature.
The recovery study was run parallel to the study done on the affects of MSM on growth of Lactobacillus acidophilus in Acidophilus milk fortified with MSM. The recovery growth rate was analyzed on Day 7, Day 14, Day 21 and Day 28. For Table 27, the growth for Day x with no time is calculated from the initial growth study with the dilution factor into the log growth. […] Table 28 takes the value of 2.00 as the starting value.

With Methylsulfonylmethane [MSM] the IC50 [1] was 15.97%, the “reduced viability by” value ([1]; 5% MSM alone) was “approximately 5%” and the “Recovery of Lactobacillus acidophilus in Milk fortified with MSM Day 7, initial start data” value ([2]; 0.5% MSM) was 8.68 logs. For the same substance, the “Recovery of Lactobacillus acidophilus in Milk fortified with MSM Day 7, average recovery” value (“Recovery … with MSM Day 7, average recovery” below) ([2]; 0.5% MSM, Day 7-24) was 12.94 logs, the “Recovery … with MSM Day 7, average recovery” value ([2]; 0.5% MSM, Day 7-48) was 12.69 logs and the “Recovery … with MSM Day 7, average recovery” value ([2]; 0.5% MSM, Day 7-72) was 13.07 logs. The “Recovery of Lactobacillus acidophilus in Milk fortified with MSM Day 14, initial start data” value ([2]; 0.5% MSM) was 4.22 logs, the “Recovery of Lactobacillus acidophilus in Milk fortified with MSM Day 14, average recovery” value (shortened to “Recovery … with MSM Day 14, average recovery”) ([2]; 0.5% MSM, Day 14-24) was 10.15 logs and the “Lag Recovery of Lactobacillus acidophilus in Milk fortified with MSM Day 14” value (from here on “Lag Recovery … with MSM Day 14”) ([2]; 0.5% MSM, Day 14-24) was 10.19 logs and 10.10 logs. The “Recovery … with MSM Day 14, average recovery” value ([2]; 0.5% MSM, Day 14-48) was 12.84 logs, the “Lag Recovery … with MSM Day 14” value ([2]; 0.5% MSM, Day 14-48) was 12.95 logs and 12.72 logs and the “Recovery … with MSM Day 14, average recovery” value ([2]; 0.5% MSM, Day 14-72) was 12.86 logs. For the same substance, the “Lag Recovery … with MSM Day 14” value ([2]; 0.5% MSM, Day 14-72) was 13.02 logs and 12.70 logs, the “Recovery of Lactobacillus acidophilus in Milk fortified with MSM Day 21, initial start data” value ([2]; 0.5% MSM) was 3.37 logs and the “Recovery of Lactobacillus acidophilus in Milk fortified with MSM Day 21, average recovery” value (shortened to “Recovery … with MSM Day 21, average recovery”) ([2]; 0.5% MSM, Day 21-24) was 12.91 logs. For the same substance, the “Lag Recovery of Lactobacillus acidophilus in Milk fortified with MSM Day 21” value (“Lag Recovery … with MSM Day 21” below) ([2]; Day 21-24) was 12.89 logs and 12.93 logs, the “Recovery … with MSM Day 21, average recovery” value ([2]; 0.5% MSM, Day 21-48) was 13.02 logs and the “Lag Recovery … with MSM Day 21” value ([2]; Day 21-48) was 12.94 logs and 13.1 logs. The “Recovery … with MSM Day 21, average recovery” value ([2]; 0.5% MSM, Day 21-72) was 11.30 logs, the “Lag Recovery … with MSM Day 21” value ([2]; Day 21-72) was 12.29 logs and 10.31 logs and the “Recovery of Lactobacillus acidophilus in Milk fortified with MSM Day 28, initial start data” value ([2]; 0.5% MSM, Day 28) was 1.00 logs. The “Recovery of Lactobacillus acidophilus in Milk fortified with MSM Day 28, average recovery” value (“Recovery … with MSM Day 28, average recovery” below) ([2]; 0.5% MSM, Day 28-24) was 6.29 logs, the “Lag Recovery of Lactobacillus acidophilus in Milk fortified with MSM Day 28” value (from here on “Lag Recovery … with MSM Day 28”) ([2]; Day 28-24) was 6.11 logs and 6.47 logs and the “Recovery … with MSM Day 28, average recovery” value ([2]; 0.5% MSM, Day 28-48) was 13.33 logs. The “Lag Recovery … with MSM Day 28” value ([2]; Day 28-48) was 13.66 logs and 12.99 logs, the “Recovery … with MSM Day 28, average recovery” value ([2]; 0.5% MSM, Day 28-72) was 13.00 logs and the “Lag Recovery … with MSM Day 28” value ([2]; Day 28-72) was 12.99 logs and 13.01 logs. The “Day 7 log recovery growth rate increase from start time of zero” value (“Day 7 log recovery growth rate increase” for short) ([2]; 0.5% MSM, Hour 0) was 0.00 logs, the “Day 14 log recovery growth rate increase from start time of zero” value (shortened to “Day 14 log recovery growth rate increase”) ([2]; 0.5% MSM, Hour 0) was 0.00 logs and the “Day 21 log recovery growth rate increase from start time of zero” value (“Day 21 log recovery growth rate increase” for short) ([2]; 0.5% MSM, Hour 0) was 0.00 logs. The “Day 7 log recovery growth rate increase” value ([2]; 0.5% MSM, Hour 24) was 4.26 logs, the “Day 14 log recovery growth rate increase” value ([2]; 0.5% MSM, Hour 24) was 5.93 logs and the “Day 21 log recovery growth rate increase” value ([2]; 0.5% MSM, Hour 24) was 9.54 logs. The “Day 7 log recovery growth rate increase” value ([2]; 0.5% MSM, Hour 48) was −0.26 logs, the “Day 14 log recovery growth rate increase” value ([2]; 0.5% MSM, Hour 48) was 2.69 logs and the “Day 21 log recovery growth rate increase” value ([2]; 0.5% MSM, Hour 48) was 0.11 logs. The “Day 7 log recovery growth rate increase” value ([2]; 0.5% MSM, Hour 72) was 0.39 logs, the “Day 14 log recovery growth rate increase” value ([2]; 0.5% MSM, Hour 72) was 0.03 logs and the “Day 21 log recovery growth rate increase” value ([2]; 0.5% MSM, Hour 72) was −1.72 logs. The “Day 28 log recovery growth rate increase from start time of zero” value (“Day 28 log recovery growth rate increase” below) ([2]; 0.5% MSM, Time 0) was 0.00 logs, the “Day 28 log recovery growth rate increase” value ([2]; 0.5% MSM, Time 24) was 5.29 logs and the “Day 28 log recovery growth rate increase” value ([2]; 0.5% MSM, Time 48) was 7.04 logs. For the same substance, the “Day 28 log recovery growth rate increase” value ([2]; 0.5% MSM, Time 72) was −0.32 logs, the “Recovery of Lactobacillus acidophilus in Milk fortified with MSM Day 7, initial start data” value ([2]; 5.0% MSM) was 8.71 logs and the “Recovery … with MSM Day 7, average recovery” value ([2]; 5.0% MSM, Day 7-24) was 12.71 logs. The “Lag Recovery of Lactobacillus acidophilus in Milk fortified with MSM Day 7” value (shortened to “Lag Recovery … with MSM Day 7”) ([2]; Day 7-24) was 12.12 logs and 13.29 logs, the “Recovery … with MSM Day 7, average recovery” value ([2]; 5.0% MSM, Day 7-48) was 13.17 logs and the “Lag Recovery … with MSM Day 7” value ([2]; Day 7-48) was 13.09 logs and 13.25 logs. For the same substance, the “Recovery … with MSM Day 7, average recovery” value ([2]; 5.0% MSM, Day 7-72) was 12.99 logs, the “Lag Recovery … with MSM Day 7” value ([2]; Day 7-72) was 13.1 logs and 12.87 logs and the “recovery log growth lower than the control” value ([2]; 5.0% MSM, Day 14, first 24 hours) was 1.02 logs. The “Recovery of Lactobacillus acidophilus in Milk fortified with MSM Day 14, initial start data” value ([2]; 5.0% MSM) was 6.04 logs, the “Recovery … with MSM Day 14, average recovery” value ([2]; 5.0% MSM, Day 14-24) was 9.60 logs and the “Lag Recovery … with MSM Day 14” value ([2]; 5.0% MSM, Day 14-24) was 9.6 logs. The “Recovery … with MSM Day 14, average recovery” value ([2]; 5.0% MSM, Day 14-48) was 13.02 logs, the “Lag Recovery … with MSM Day 14” value ([2]; 5.0% MSM, Day 14-48) was 12.99 logs and 13.04 logs and the “Recovery … with MSM Day 14, average recovery” value ([2]; 5.0% MSM, Day 14-72) was 12.43 logs. The “Lag Recovery … with MSM Day 14” value ([2]; 5.0% MSM, Day 14-72) was 12.65 logs and 12.21 logs and the “Recovery of Lactobacillus acidophilus in Milk fortified with MSM Day 21, initial start data” value ([2]; 5.0% MSM) was 3.56 logs.
